Assays:
[1] = target: ERK2 (Homo sapiens (Human), UniProt P28482); experiment: Active ERK1 and ERK2 Kinase Assay (Mobility Shift Assay); format: biochemical; conditions: activated ERK2, Mobility Shift Assay
Experimental: Activated ERK1 and ERK2 activity was determined in a Mobility Shift Assay (MSA) format as follows: Compound and kinase solution were prepared with assay buffer (20 mM HEPES, 0.01% Triton X-100, 2 mM DTT, pH7.5) and mixed and incubated in for 30 mins at rt. ERK1 & ERK2 were then activated by the addition of F1-Substrate, ATP and metal solution and incubated for 1 h at rt. After 1 h, the reaction was terminated by the addition of […] of Termination Buffer (QuickScout Screening Assist MSA; Carna Biosciences) to the well. The reaction mixture was applied to LabChip™ system (PerkinElmer), and the product and substrate peptide peaks were separated, analyzed and quantitated. The kinase reaction is evaluated by the product ratio calculated from peak heights of product (P) and substrate(S) peptides (P/(P+S)).

[2] = test system: A375 (melanoma) cells; experiment: Proliferation Assay (CellTiter-Glo); format: cell-based; conditions: 3 days incubation, CellTiter-Glo luminescence
Experimental: A375 (melanoma), Colo-205 (colon cancer), Miapaca (pancreatic), HPAFII (pancreatic), sNF02.0 (neurofibromatosis type 1), sNF96.2 (neurofibromatosis type 1) and 8505 (Thyroid) cells were grown and maintained in RPMI-1640 medium containing 100 U/mL penicillin-streptomycin and 10% fetal bovine serum. Cells were in growth medium in 96-well opaque-walled clear bottom plates and incubated in the CO2 incubator overnight before treatment. Cells were treated with compounds diluted in DMSO and a 10 point 3-fold serial dilutions were done. Plates were placed in 37° C., 5% CO2 to incubate for 3 days. Before they were developed by adding 100 μL of CellTiter-Glo reagent (Promega) to the assay plate, plates were shaken briefly for 2 mins and allowed to incubate at room temperature for 10 mins. The bottom of the plates was pasted with white back seal and luminescence was recorded with Flexstation3 with setting of luminescence, integration time 500 ms.
Compounds of Formula (I), (II) and (III) are active in this assay as noted in Table 2.

ERK2, sequence (P28482 whole entry): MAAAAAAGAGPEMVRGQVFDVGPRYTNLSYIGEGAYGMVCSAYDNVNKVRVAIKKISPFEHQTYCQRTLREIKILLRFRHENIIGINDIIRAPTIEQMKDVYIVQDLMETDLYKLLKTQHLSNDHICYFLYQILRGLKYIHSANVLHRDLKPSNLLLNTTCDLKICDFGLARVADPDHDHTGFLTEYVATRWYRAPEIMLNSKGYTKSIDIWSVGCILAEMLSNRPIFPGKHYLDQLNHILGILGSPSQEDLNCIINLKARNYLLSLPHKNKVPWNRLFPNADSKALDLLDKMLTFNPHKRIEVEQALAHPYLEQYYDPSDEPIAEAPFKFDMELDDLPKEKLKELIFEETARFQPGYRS

SMILES	IC50 [1]	IC50 [2]	IC50 ([2]; Homo sapiens, A-375, 72 h)
Cn1nc(-c2ccc(C3=CCN(C(=O)CN4CC[C@]5(CCN(c6ccc7[nH]nc(-c8ccc(C#N)c(Cl)c8)c7c6)C5=O)C4)CC3)cc2)oc1=O [Example 14]	≤ 50 nM	≤ 500 nM	
COc1ccc(-c2n[nH]c3ccc(N4CC[C@]5(CCN(CC(=O)N6CC=C(c7ccc(-c8ncn(C)n8)s7)CC6)C5)C4=O)nc23)cn1 [Example 66]	≤ 50 nM	≤ 500 nM	
Cn1cnc(-c2ccc(C3=CCN(C(=O)CN4CC[C@]5(CCN(c6ccc7[nH]nc(-c8ccc(C#N)cn8)c7n6)C5=O)C4)CC3)cc2)n1 [Example 51]	≤ 50 nM	≤ 500 nM	
Cn1cnc(-c2cnc(C3=CCN(C(=O)CN4CC[C@]5(CCN(c6ccc7[nH]nc(-c8ccc(F)cc8)c7n6)C5=O)C4)CC3)s2)n1 [Example 47]	≤ 50 nM	≤ 500 nM	
Cn1cnc(-c2ccc(C3=CCN(C(=O)CN4CC[C@]5(CCN(c6ccc7[nH]nc(C8CCN(CC(F)(F)F)CC8)c7c6)C5=O)C4)CC3)cc2)n1 [Example 12, (S)-7-(2-(4-(4-(1-Methyl-1H-1,2,4-triazol-3-yl)phenyl)-5,6-dihydropyridin-1(2H)-yl)-2-oxoethyl)-2-(3-(1-(2,2,2-trifluoroethyl)piperidin-4-yl)-1H-indazol-5-yl)-2,7-diazaspiro[4.4]nonan-1-one]	≤ 50 nM		500 to 1000 nM
CCOc1ccc(-c2n[nH]c3ccc(N4CC[C@]5(CCN(CC(=O)N6CC=C(c7ccc(-c8ncn(C)n8)cc7)CC6)C5)C4=O)nc23)cn1 [Example 81]	≤ 50 nM	≤ 500 nM	
COc1ccc(-c2n[nH]c3ccc(N4CC[C@]5(CCN(CC(=O)N6CC=C(c7ccc(-c8ncn(C)n8)cc7)CC6)C5)C4=O)nc23)cc1 [Example 63]	≤ 50 nM	≤ 500 nM	
COc1cccc(-c2n[nH]c3ccc(N4CC[C@]5(CCN(CC(=O)N6CC=C(c7ccc(-c8ncn(C)n8)cc7)CC6)C5)C4=O)cc23)n1 [Example 61]	≤ 50 nM	≤ 500 nM	
Cn1cnc(-c2ccc(C3=CCN(C(=O)CN4CC[C@]5(CCN(c6ccc7[nH]nc(-c8cnc(C#N)c(Cl)c8)c7c6)C5=O)C4)CC3)cc2)n1 [Example 9]	≤ 50 nM		≤ 500 nM
Cc1ccc(-c2n[nH]c3ccc(N4CC[C@]5(CCN(CC(=O)N6CC=C(c7ccc(-c8ncn(C)n8)cc7)CC6)C5)C4=O)nc23)cn1 [Example 20]	≤ 50 nM	≤ 500 nM	
COc1cnc(-c2n[nH]c3ccc(N4CC[C@]5(CCN(CC(=O)N6CCC(c7ccc(-c8ncn(C)n8)cc7)CC6)C5)C4=O)cc23)c(F)c1 [Example 74]	≤ 50 nM	500 to 1000 nM	
Cc1cc(-c2n[nH]c3ccc(N4CC[C@]5(CCN(CC(=O)N6CC=C(c7ccc(-c8ncn(C)n8)cc7)CC6)C5)C4=O)nc23)ccn1 [Example 38]	≤ 50 nM		≤ 500 nM
CN1CCC(c2n[nH]c3ccc(N4CC[C@]5(CCN(CC(=O)N6CC=C(c7ccc(-c8ncn(C)n8)cc7)CC6)C5)C4=O)cc23)CC1 [Example 4, (S)-7-(2-(4-(4-(1-methyl-1H-1,2,4-triazol-3-yl)phenyl)-3,6-dihydropyridin-1(2H)-yl)-2-oxoethyl)-2-(3-(1-methylpiperidin-4-yl)-1H-indazol-5-yl)-2,7-diazaspiro[4.4]nonan-1-one]	≥ 250 nM		≥ 1000 nM
Cn1nc(-c2ccc(C3=CCN(C(=O)CN4CC[C@]5(CCN(c6ccc7[nH]nc(C8=CCOCC8)c7c6)C5=O)C4)CC3)cc2)oc1=O [Example 32]	≤ 50 nM		≤ 500 nM
CNC(=O)c1cc(-c2n[nH]c3ccc(N4CC[C@]5(CCN(CC(=O)N6CC=C(c7ccc(-c8ncn(C)n8)cc7)CC6)C5)C4=O)cc23)ccn1 [Example 5]	≤ 50 nM		≤ 500 nM
Cc1ncc(-c2n[nH]c3ccc(N4CC[C@]5(CCN(CC(=O)N6CC=C(c7ccc(-c8nn(C)c(=O)o8)cc7)CC6)C5)C4=O)cc23)s1 [Example 33]	≤ 50 nM		≤ 500 nM
Cn1cc(-c2n[nH]c3ccc(N4CC[C@]5(CCN(CC(=O)N6CC=C(c7ccc(-c8ncn(C)n8)cc7)CC6)C5)C4=O)nc23)cn1 [Example 37]	≤ 50 nM		≤ 500 nM
Cn1cnc(-c2ccc(C3=CCN(C(=O)CN4CC[C@]5(CCN(c6ccc7[nH]nc(-c8ccc(F)cn8)c7c6)C5=O)C4)CC3)s2)n1 [Example 55]	≤ 50 nM	≤ 500 nM	

SMILES	IC50 [1]	IC50 [2]	IC50 ([2]; Homo sapiens, A-375, 72 h)
CC1CC(c2n[nH]c3ccc(N4CCC5(CCN(CC(=O)N6CC=C(c7ccc(-c8nn(C)c(=O)o8)cc7)CC6)C5)C4=O)nc23)CC(C)O1 (stereo not drawn) [Example 52]	≤ 50 nM	≤ 500 nM	
Cn1cnc(-c2ccc(C3=CCN(C(=O)CN4CC[C@]5(CCN(c6ccc7[nH]nc(-c8ccc(C#N)cn8)c7c6)C5=O)C4)CC3)cc2)n1 [Example 29]	≤ 50 nM		≤ 500 nM
COc1ccc(-c2n[nH]c3ccc(N4CC[C@]5(CCN(CC(=O)N6CC=C(c7ccc(-c8ncn(C)n8)cc7)CC6)C5)C4=O)nc23)nc1OC [Example 93]	≤ 50 nM	≤ 500 nM	
Cn1cnc(-c2cnc(C3=CCN(C(=O)CN4CC[C@]5(CCN(c6ccc7[nH]nc(C8CCOCC8)c7n6)C5=O)C4)CC3)s2)n1 [Example 34]	≤ 50 nM		≤ 500 nM
CC(C)Oc1ccc(-c2n[nH]c3ccc(N4CC[C@]5(CCN(CC(=O)N6CCN(c7ccc(-c8ncn(C)n8)cc7)CC6)C5)C4=O)nc23)cn1 [Example 82]	≤ 50 nM	≤ 500 nM	
COc1ccc(-c2n[nH]c3ccc(N4CC[C@]5(CCN(CC(=O)N6CC=C(c7ncc(-c8ncn(C)n8)s7)CC6)C5)C4=O)nc23)cn1 [Example 36]	≤ 50 nM		≤ 500 nM
Cn1cnc(-c2ccc(C3=CCN(C(=O)CN4CC[C@]5(CCN(c6ccc7[nH]nc(C89CC(C#N)(C8)C9)c7c6)C5=O)C4)CC3)cc2)n1 [Example 73, (S)-3-(5-(7-(2-(4-(4-(1-Methyl-1H-1,2,4-triazol-3-yl)phenyl)-5,6-dihydropyridin-1(2H)-yl)-2-oxoethyl)-1-oxo-2,7-diazaspiro[4.4]nonan-2-yl)-1H-indazol-3-yl)bicyclo[1.1.1]pentane-1-carbonitrile]	≤ 50 nM		500 to 1000 nM
Cn1cnc(-c2ccc(C3=CCN(C(=O)CN4CC[C@]5(CCN(c6ccc7[nH]nc(C8CCOC8)c7c6)C5=O)C4)CC3)cc2)n1 (stereo partly drawn) [Example 13, (5S)-7-(2-(4-(4-(1-Methyl-1H-1,2,4-triazol-3-yl)phenyl)-5,6-dihydropyridin-1(2H)-yl)-2-oxoethyl)-2-(3-(tetrahydrofuran-3-yl)-1H-indazol-5-yl)-2,7-diazaspiro[4.4]nonan-1-one]	≤ 50 nM		≤ 500 nM
COc1ccc(-c2n[nH]c3ccc(N4CC[C@]5(CCN(CC(=O)N6CC=C(c7ccc(-c8ncn(C)n8)cc7)CC6)C5)C4=O)cc23)cn1 [Example 2]	≤ 50 nM		≤ 500 nM
Cn1cnc(-c2cnc(C3=CCN(C(=O)CN4CC[C@]5(CCN(c6ccc7[nH]nc(-c8ccc(F)cc8)c7c6)C5=O)C4)CC3)s2)n1 [Example 17]	≤ 50 nM	≤ 500 nM	
Cc1nc2cc(-c3n[nH]c4ccc(N5CC[C@]6(CCN(CC(=O)N7CC=C(c8ccc(-c9ncn(C)n9)cc8)CC7)C6)C5=O)nc34)ccc2o1 [Example 24]	≤ 50 nM	≤ 500 nM	
COc1ccc(-c2n[nH]c3ccc(N4CC[C@]5(CCN(CC(=O)N6CC=C(c7ccc(-c8ncn(C)n8)cc7)CC6)C5)C4=O)nc23)cc1OC [Example 92]	≤ 50 nM	≤ 500 nM	
Cn1nc(-c2ccc(C3=CCN(C(=O)CN4CC[C@]5(CCN(c6ccc7[nH]nc(-c8ccc(F)cc8)c7c6)C5=O)C4)CC3)cc2)oc1=O [Example 18]	≤ 50 nM	≤ 500 nM	
Cn1ccc(-c2n[nH]c3ccc(N4CC[C@]5(CCN(CC(=O)N6CC=C(c7ccc(-c8ncn(C)n8)cc7)CC6)C5)C4=O)nc23)n1 [Example 39]	50 to 250 nM		≥ 1000 nM
Cn1cnc(-c2ccc(C3=CCN(C(=O)CN4CCC5(CCN(c6ccc7[nH]nc(N8CCOCC8)c7n6)C5=O)C4)CC3)cc2)n1 (stereo not drawn) [Example 49]	≤ 50 nM	≤ 500 nM	
Cn1cnc(-c2ccc(C3=CCN(C(=O)CN4CC[C@]5(CCN(c6ccc7[nH]nc(C89CC(C8)C9)c7c6)C5=O)C4)CC3)cc2)n1 [Example 72, (S)-2-(3-(Bicyclo[1.1.1]pentan-1-yl)-1H-indazol-5-yl)-7-(2-(4-(4-(1-methyl-1H-1,2,4-triazol-3-yl)phenyl)-5,6-dihydropyridin-1(2H)-yl)-2-oxoethyl)-2,7-diazaspiro[4.4]nonan-1-one]	≤ 50 nM		500 to 1000 nM
Cn1cnc(-c2cnc(C3=CCN(C(=O)CN4CC[C@]5(CCN(c6ccc7[nH]nc(-c8ccc(F)cn8)c7c6)C5=O)C4)CC3)s2)n1 [Example 54]	≤ 50 nM	≤ 500 nM	
CC(C)Oc1ccc(-c2n[nH]c3ccc(N4CC[C@]5(CCN(CC(=O)N6CC=C(c7ccc(-c8ncn(C)n8)s7)CC6)C5)C4=O)nc23)cn1 [Example 65]	≤ 50 nM	≤ 500 nM	

Reference: patent publication US10934304B2, “Spirocyclic compounds” (Recurium IP Holdings, LLC, priority 2016, dated 2021)
